{"source": "patent US12365670B2", "about": "“GLP-IR agonists and uses thereof” (QILU REGOR THERAPEUTICS INC., priority 2018, dated 2025)", "key": {"[1]": {"assay": "Monkey oral pharmacokinetic (PK) study", "assay_type": "in vivo, Cynomolgus monkeys (Macaca fascicularis)", "details": "for plasma concentration-time profile: PO, over about 24 hours after oral dosing, FIGS. 8A-8E; for AUC0-24 h (Arbitrary units) / Cmax (Arbitrary unit): oral", "protocol": "Appropriate volumes of vehicles (e.g., 2% Tween 80 (v:v) and 0.5% MC (w:v) in saline or 0.5% MC (w:v) in water were then added into the mortar containing the ground compounds, and the mixture was then grinded with a pestle until a homogeneous paste was formed. Additional appropriate volumes of vehicles were added into the mortar containing each compound, and the mixture was grinded further with the pestle until a homogeneous suspension was obtained.\nThe suspension was then transferred into a glass bottle. The mortar and the pestle were rinsed with the vehicle until no compound was left in the mortar or on the pestle.\nThe rest of the vehicle was added to make up the final dosing volume of about 1 mg/mL or 2 mg/mL (i.e., final dosing volume of about 5 mL/kg), and the homogenous suspension was continuously stirred prior to and during the dosing.\nNon-nave Cynomolgus male monkeys (n=3/test article; sourced from Hainan Jingang Biotech Co., Ltd., Nayang Xintan, Fucheng Town, Qiongshan District, Haikou City, Hainan Province, China); or non-naïve aged, obese, and diabetic male Macaca fascicularis monkeys (n=3/test article, Source: Kunming Biomed International Colony) were used in pre-clinical in vivo studies. All non-nave Cynomolgus male monkeys were approximately 3 to 5 years old, weighed about 2.5-5 kg, and were within ±20% of the average body weight. All non-nave aged, obese, and diabetic male Macaca fascicularis monkeys were approximately 12 to 20 years old, weighed about >8-12 kg.\nAll animals were fasted overnight before dosing, and the food were supplied approximately 4 hours post dose (with free access to water all the time).\nAnimals were restrained at designated time points for blood sampling. Approximately 500 μL of blood samples was taken via cephalic or saphenous vein into EDTA-K2 tubes. Blood samples were put on wet ice before centrifugation.\nFor oral administration (PO) of either Dose 1 or Dose 2: blood samples were collected at pre-dose, and at 15 min, 30 min, 1 hr, 2 hr, 4 hr, (6 hr for compounds 19 and 28 with cynomolgus monkeys only), 8 hr, 12 hr, and 24 hr post dose (i.e., 9 or 10 total time points for each compound at each dose).\nThe blood samples were centrifuged at approximately 2,000-4,000 rpm for about 10-15 minutes at 2-8° C., and each resulting plasma portion was then transferred into an individual tube.\nLC-MS/MS methods were developed, and bioanalysis for the test articles in monkey plasma was performed according to the developed LC-MS/MS methods.\nUndiluted plasma samples: An aliquot of 20-50 μL plasma sample was mixed with 200 μL of ACN or MeOH containing one of the internal standards (IS, e.g., Diclofenac or Terfenadine) The mixture was then vortexed for about 1-5 min, and centrifuged at about 4,000-5,800 rpm for about 10-15 min. An aliquot of 1 μL supernatant was used for LC-MS/MS analysis.\nPlasma samples with 10-fold dilution: An aliquot of 2 μL plasma sample was first mixed with 18 μL of blank plasma, then 200 μL of ACN containing 100 ng/mL IS (e.g. Diclofenac) was added to the mixture. The mixture was then vortexed for about 10 min, and was centrifuged at about 5,800 rpm for about 10 min. An aliquot of 1 μL supernatant was used for LC-MS/MS analysis.\nMS conditions: Positive ion, ESI, MRM detection with parent and daughter ions, internal standard Diclofenac. • Compound ID: Compounds 19, 28, 29, 225 or 418 (control) HPLC conditions Method 1: • Mobile Phase A: H2O-0.025% FA-1 mM NH4OAC • Mobile Phase B: MeOH-0.025% FA-1 mM NH4OAC\nPharmacokinetics parameters, including area under the curve (AUC0-t), maximum plasma concentration (Cmax), time to reach maximum plasma concentration (Tmax), oral bioavailability (F %), etc., were calculated using Phoenix software (Version 6.4) and non-compartment model."}, "GLP1R [2]": {"biological_target": "T1, GLP1R (Homo sapiens, UniProt P43220)", "T1 sequence (P43220 24-463)": "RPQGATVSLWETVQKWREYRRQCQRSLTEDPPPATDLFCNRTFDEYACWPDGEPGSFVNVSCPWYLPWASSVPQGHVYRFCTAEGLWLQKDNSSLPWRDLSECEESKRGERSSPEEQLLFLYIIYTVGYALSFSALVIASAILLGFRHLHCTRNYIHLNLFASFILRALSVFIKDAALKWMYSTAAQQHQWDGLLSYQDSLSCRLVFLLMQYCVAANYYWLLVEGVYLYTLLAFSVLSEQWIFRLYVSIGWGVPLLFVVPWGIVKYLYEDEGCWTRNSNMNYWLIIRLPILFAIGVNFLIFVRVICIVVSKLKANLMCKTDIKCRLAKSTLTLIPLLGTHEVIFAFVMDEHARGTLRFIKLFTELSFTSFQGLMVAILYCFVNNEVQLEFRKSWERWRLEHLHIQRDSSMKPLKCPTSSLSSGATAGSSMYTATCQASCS", "assay": "β-Arrestin-mediated GLP1R internalization assay (PathHunter engineered U2OS cells)", "assay_type": "cell-based", "design": "host or cells: PathHunter engineered U2OS cells", "details": "averaged Bmax, Percentage of Control GLP-1 (7-37), top concentration 10 μM", "source_text": "A similar assay can also be used to assess the extent of signal attenuation due to GLP-1R internalization (the β-Arrestin Internalization Assay). In this assay, activated GLP1R Internalization cells were engineered to co-express an untagged GLP1R, Enzyme Acceptor (EA) tagged β-Arrestin, and a ProLink™ (PK) tag localized to the endosomes. Activation of the GLP1R induces β-Arrestin recruitment, which leads to internalization of the Receptor/Arrestin-EA complex in PK-tagged endosomes. This forces complementation of the two β-galactosidase enzyme fragments (EA and PK) to form a functional enzyme that hydrolyzes substrate to generate a chemiluminescent signal. […]\nSpecifically, PathHunter engineered U2OS cells from the assay kit (Cat #93-0724E3CP0L) were plated at a density of 2000 cells/20 μL/well in a 384-well white/clear bottom plates (Greiner Cat #781098). […] Cells were stored in a 37° C. incubator and kept for approximately 48 hours until ready for the assay. […]\nFollowing 180 min incubation, detection reagents were made up by combining 1 part Galacton Star Substrate with 5 parts Emerald II™ Solution, and 19 parts of PathHunter Cell Assay Buffer, respectively. […] Plates were then read on Envision for 0.1 sec/well.\nEC50 determinations were made from agonist dose-response curves analyzed with a curve fitting program using a 4-parameter logistic dose response equation."}, "GLP1R [3]": {"biological_target": "T1, GLP1R", "assay": "GLP-1R/β-Arrestin recruitment assay (PathHunter eXpress GLP1R CHO-K1 β-Arrestin GPCR Assay)", "assay_type": "cell-based", "design": "host or cells: PathHunter CHO-K1 GLP1R β-Arrestin cells (from the kit)", "details": "averaged Bmax, Percentage of Control GLP-1 (7-37), top concentration 10 μM", "source_text": "GLP-1R agonist activity with respect to β-arrestin recruitment can be determined with a cell-based functional assay using PathHunter eXpress GLP1R CHO-K1 β-Arrestin GPCR Assay kit (DiscoverX Cat #93-0300E2CPOM).\nThe PathHunter β-Arrestin GPCR assay technology utilizes a β-galactosidase ([…]) enzyme that is split into two fragments, the smaller Enzyme Donor (ED) and the larger Enzyme Acceptor (EA). These fragments can be fused to two proteins that may interact with each other, such as EA-β-Arrestin and ED-GLP-1R. The fusions can be stably expressed in a test cell line, such as the PathHunter CHO-K1 GLP1R β-Arrestin cells described below. […]\nIn this experiment, PathHunter CHO-K1 GLP1R β-Arrestin cells from the assay kit were plated at a density of 1000 or 2000 cells/[…]/well in a 384-well white/clear bottom plates (Greiner Cat #781098). […] Cells were stored in a 37° C. incubator under 5% CO2 and kept for approximately 48 hours until ready to run the assay. […]\nFollowing 90 min incubation, detection reagents were made up by combining 1 part Galacton Star Substrate with 5 parts Emerald II™ Solution, and 19 parts of PathHunter Cell Assay Buffer, respectively. […] Plates were then read on Envision for 0.1 sec/well.\nEC50 determinations were made from agonist dose-response curves analyzed with a curve fitting program using a 4-parameter logistic dose response equation. […]"}, "[4]": {"details": "Dose 1, non-naive Cynomolgus male monkeys"}}}
{"smiles": "O=C(O)c1ccc2nc(CN3CC=C(c4cccc(OCc5ccc(Cl)cc5F)c4)CC3)n(C[C@@H]3CCO3)c2c1", "note": "[Compound 28, (S)-2-((4-(3-((4-chloro-2-fluorobenzyl)oxy)phenyl)-3,6-dihydropyridin-1(2H)-yl)methyl)-1-(oxetan-2-ylmethyl)-1 h-benzo[d]imidazole-6-carboxylic acid]", "values": [{"measurement": "plasma concentration-time profile", "setting": "[1]", "result": "sustained at a more constant level"}, {"measurement": "AUC0-24 h (Arbitrary units)", "setting": "[1]; [4]", "result": 24900, "unit": "Arbitrary units"}, {"measurement": "Cmax (Arbitrary unit)", "setting": "[1]; [4]", "result": 3910, "unit": "Arbitrary unit"}]}
{"smiles": "O=C(O)c1ccc2nc(CN3CC=C(c4ccc(F)c(OCc5ccc(Cl)cc5F)c4)CC3)n(C[C@@H]3CCO3)c2n1", "note": "[Compound 236, (S)-2-((4-(3-((4-chloro-2-fluorobenzyl)oxy)-4-fluorophenyl)-5,6-dihydropyridin-1(2H)-yl)methyl)-3-(oxetan-2-ylmethyl)-3H-imidazo[4,5-b]pyridine-5-carboxylic acid]", "values": [{"measurement": "Bmax (POC)", "setting": "GLP1R [2]", "result": 30.0, "unit": "POC"}]}
{"smiles": "N#Cc1ccc(COc2cccc(C3=CCN(Cc4nc5ccc(C(=O)O)nc5n4C[C@@H]4CCO4)CC3)n2)c(F)c1", "note": "[Compound 225, (S)-2-((6-((4-cyano-2-fluorobenzyl)oxy)-3′,6′-dihydro-[2,4′-bipyridin]-1′(2′H)-yl)methyl)-3-(oxetan-2-ylmethyl)-3H-imidazo[4,5-b]pyridine-5-carboxylic acid]", "values": [{"measurement": "plasma concentration-time profile", "setting": "[1]", "result": "sustained at a more constant level"}, {"measurement": "AUC0-24 h (Arbitrary units)", "setting": "[1]; Dose 2, monkeys", "result": 1500, "unit": "Arbitrary units"}, {"measurement": "Cmax (Arbitrary unit)", "setting": "[1]; Dose 2, monkeys", "result": 184, "unit": "Arbitrary unit"}]}
{"smiles": "N#Cc1ccc(COc2cccc(C3CCN(Cc4nc5ccc(C(=O)O)cc5n4C[C@@H]4CCO4)CC3)n2)c(F)c1", "note": "[Compound 418, reference compound]", "values": [{"measurement": "AUC0-24 h (Arbitrary units)", "setting": "[1]; Dose 2, monkeys", "result": 774, "unit": "Arbitrary units"}, {"measurement": "Cmax (Arbitrary unit)", "setting": "[1]; Dose 2, monkeys", "result": 232, "unit": "Arbitrary unit"}, {"measurement": "drop in plasma concentration", "setting": "[1]; over about 24 hours post oral dosing, Dose 2, FIG. 8F", "result": "about 10 fold"}]}
{"smiles": "O=C(O)c1ccc2nc(CN3CC=C(c4ccc(F)c(OCc5ccc(Cl)cc5F)c4)CC3)n(C[C@@H]3CCO3)c2c1", "note": "[Compound 29, (S)-2-((4-(3-((4-chloro-2-fluorobenzyl)oxy)-4-fluorophenyl)-3,6-dihydropyridin-1(2H)-yl)methyl)-1-(oxetan-2-ylmethyl)-1 h-benzo[d]imidazole-6-carboxylic acid]", "values": [{"measurement": "plasma concentration-time profile", "setting": "[1]", "result": "sustained at a more constant level"}, {"measurement": "AUC0-24 h (Arbitrary units)", "setting": "[1]; Dose 2, monkeys", "result": 21800, "unit": "Arbitrary units"}, {"measurement": "Cmax (Arbitrary unit)", "setting": "[1]; Dose 2, monkeys", "result": 3380, "unit": "Arbitrary unit"}]}
{"smiles": "O=C(O)c1ccc2nc(CN3CCN(c4cccc(NCc5ccc(Cl)cc5F)n4)CC3)n(C[C@@H]3CCO3)c2c1", "note": "[Compound 1, (S)-2-((4-(6-(4-chloro-2-fluorobenzylamino)pyridin-2-yl)piperazin-1-yl)methyl)-1-(oxetan-2-ylmethyl)-1 h-benzo[d]imidazole-6-carboxylic acid]", "values": [{"measurement": "Bmax (POC)", "setting": "GLP1R [3]", "result": 2.80, "unit": "POC"}]}
{"smiles": "N#Cc1ccc(COc2cccc(C3=CCN(Cc4nc5ccc(C(=O)O)cc5n4C[C@@H]4CCO4)CC3)n2)c(F)c1", "note": "[Compound 19, (S)-2-((4-(6-(4-cyano-2-fluorobenzyloxy)pyridin-2-yl)-5,6-dihydropyridin-1(2H)-yl)methyl)-1-(oxetan-2-ylmethyl)-1 h-benzo[d]imidazole-6-carboxylic acid]", "values": [{"measurement": "plasma concentration-time profile", "setting": "[1]", "result": "sustained at a more constant level"}, {"measurement": "AUC0-24 h (Arbitrary units)", "setting": "[1]; [4]", "result": 1130, "unit": "Arbitrary units"}, {"measurement": "Cmax (Arbitrary unit)", "setting": "[1]; [4]", "result": 125, "unit": "Arbitrary unit"}]}
